Where a name gives a salt, the structure may show the parent alone.
Molecular target: T1, h5-HT5A receptor (Homo sapiens, UniProt P47898)
T1 construct: expressed in transfected cells; membranes used
Assay: h5-HT5A [3H]5-CT binding assay
Conditions: affinity for 5-HT5A; membranes of HEK293 cells expressing the h5-HT5A receptor gene, 2.5 nM [3H]5-CT
Method: h5-HT5A [^3H]5-CT Binding Assay
Membranes of HEK293 cells which permanently express the h5-HT5A receptor gene were incubated in 100 mM tris-HCl buffer (pH 7.7) containing 1 mM EDTA, in the presence of 2.5 nM [^3H]5-CT (total volume 600 μL). The total binding is defined as the binding that is observed when the membranes are incubated in the presence of only the radioligand. The inhibition induced by the compound is determined by incubation of cell membranes in the presence of the radioligand and various concentrations of the compound of interest. Nonspecific binding is defined as the [^3H]5-CT binding obtained by incubation of the membranes, the same as for the total binding, but in the presence of 10 μM methiothepine. Following incubation for 75 min at 30° C., the membrane suspension was filtered through a GF/B-Filter coated with 0.03% PEI, using a Skatron® harvesting system. The residual radioactivity in the filter was quantified by liquid scintillation counting.
Various concentrations of the test substances were used in both assays, and the Ki or IC50 values were determined.

T1 sequence (P47898 whole entry): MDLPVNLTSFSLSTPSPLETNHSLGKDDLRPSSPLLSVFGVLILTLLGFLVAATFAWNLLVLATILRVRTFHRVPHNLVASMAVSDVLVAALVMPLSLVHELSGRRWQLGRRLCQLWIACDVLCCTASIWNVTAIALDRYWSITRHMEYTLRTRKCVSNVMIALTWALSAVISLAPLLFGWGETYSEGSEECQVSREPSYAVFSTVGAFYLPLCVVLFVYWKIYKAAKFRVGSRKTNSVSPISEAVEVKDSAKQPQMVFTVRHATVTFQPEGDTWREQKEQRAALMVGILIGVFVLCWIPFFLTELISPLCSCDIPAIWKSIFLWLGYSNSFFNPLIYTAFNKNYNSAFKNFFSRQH

Row | SMILES | Ki [µM]
1 | Cc1ccc(NC(=N)NCc2ccccc2OC(C)C)nc1 [Example 23, N-(2-Isopropoxybenzyl)-N′-(5-methylpyridin-2-yl)guanidine acetate] | < 0.1
2 | Cc1ccc(NC(=N)NCc2ccccc2OC(F)(F)F)nc1 [Example 24, N-(5-Methylpyridin-2-yl)-N′-[2-(trifluoromethoxy)benzyl]guanidine] | < 0.1
3 | CCc1ccccc1CNC(=N)Nc1ccc(C)cn1 [Example 25, N-(2-Ethylbenzyl)-N′-(5-methylpyridin-2-yl)guanidine] | < 0.3
4 | Cc1ccc(NC(=N)NCc2ccccc2OC(F)F)nc1 [Example 26, N-[2-(Difluoromethoxy)benzyl]-N′-(5-methylpyridin-2-yl)guanidine] | < 0.1
5 | Cc1ccc(NC(=N)NCc2c(Cl)cccc2Oc2ccccc2)nc1 [Example 27, N-(2-Chloro-6-phenoxybenzyl)-N′-(5-methylpyridin-2-yl)guanidine acetate] | < 0.1
6 | Cc1ccc(NC(=N)NCc2ccccc2Oc2ccccc2)nc1 [Example 28, N-(5-Methylpyridin-2-yl)-N′-(2-phenoxybenzyl)guanidine hydrochloride] | < 0.1
7 | COc1ccccc1CNC(=N)Nc1cc(C)ccn1 [Example 29, N-(2-Methoxybenzyl)-N′-(4-methylpyridin-2-yl)guanidine acetate] | < 0.1
8 | COc1cccc(OC)c1CNC(=N)Nc1cc(C)ccn1 [Example 30, N-(2,6-Dimethoxybenzyl)-N′-(4-methylpyridin-2-yl)guanidine acetate] | < 0.1
9 | COc1cccc(Cl)c1CNC(=N)Nc1ncccc1C [Example 31, N-(2-Chloro-6-methoxybenzyl)-N′-(3-methylpyridin-2-yl)guanidine] | < 0.1
10 | COc1cccc(F)c1CNC(=N)Nc1ncccc1C [Example 32, N-(2-Fluoro-6-methoxybenzyl)-N′-(3-methylpyridin-2-yl)guanidine] | < 0.1
11 | COc1cccc(C)c1CNC(=N)Nc1ncccc1C [Example 33, N-(2-Methoxy-6-methylbenzyl)-N′-(3-methylpyridin-2-yl)guanidine] | < 0.1
12 | COc1ccccc1CNC(=N)Nc1cccnc1 [Example 34, N-(2-Methoxybenzyl)-N′-pyridin-3-yl-guanidine acetate] | < 10
13 | COc1ccccc1CNC(=N)Nc1ccc[n+](C)c1 [Example 35, 3-({Imino[(2-methoxybenzyl)amino]methyl}amino)-1-methylpyridinium acetate] | < 10
14 | COc1ccccc1CNC(=N)Nc1ncccn1 [Example 36, N-(2-Methoxybenzyl)-N′-pyrimidin-2-yl-guanidine acetate] | < 10
15 | COc1cccc(OC)c1CNC(=N)Nc1ncccn1 [Example 37, N-(2,6-Dimethoxybenzyl)-N′-pyrimidin-2-ylguanidine] | < 0.1
16 | COc1ccccc1CNC(=N)Nc1cc2ccccc2cn1 [Example 38, N-Isoquinolin-3-yl-N′-(2-methoxybenzyl)guanidine] | < 0.1
17 | COc1cccc(OC)c1CNC(=N)Nc1cc2ccccc2cn1 [Example 39, N-(2,6-Dimethoxybenzyl)-N′-isoquinolin-3-ylguanidine] | < 0.1
18 | COc1ccccc1CNC(=N)Nc1ccc2ccccc2n1 [Example 40, N-(2-Methoxybenzyl)-N′-quinolin-2-yl-guanidine acetate] | < 0.1
19 | COc1cccc(OC)c1CNC(=N)Nc1ccc2ccccc2n1 [Example 41, N-(2,6-Dimethoxybenzyl)-N′-quinolin-2-yl-guanidine acetate] | < 0.1
20 | COc1ccccc1CNC(=N)Nc1cccc(Br)n1 [Example 42, N-(6-Bromopyridin-2-yl)-N′-(2-methoxybenzyl)guanidine] | < 0.1
21 | COc1cccc(OC)c1CNC(=N)Nc1cccc(Br)n1 [Example 43, N-(6-Bromopyridin-2-yl)-N′-(2,6-dimethoxybenzyl)guanidine] | < 0.1
22 | COc1cccc(OC)c1CNC(=N)Nc1cc(Br)ccn1 [Example 44, N-(4-Bromopyridin-2-yl)-N′-(2,6-dimethoxybenzyl)guanidine] | < 0.1
23 | COc1ccccc1CNC(=N)Nc1cc(Br)ccn1 [Example 45, N-(4-Bromopyridin-2-yl)-N′-(2-methoxybenzyl)guanidine] | < 0.1
24 | COc1cccc(OC)c1CNC(=N)Nc1ncccc1Br [Example 46, N-(3-Bromopyridin-2-yl)-N′-(2,6-dimethoxybenzyl)guanidine acetate] | < 0.1
25 | COc1ccccc1CNC(=N)Nc1ncccc1Br [Example 47, N-(3-Bromopyridin-2-yl)-N′-(2-methoxybenzyl)guanidine acetate] | < 10

Row | SMILES | Ki [µM]
26 | COc1ccccc1CNC(=N)Nc1cccc(-c2ccc(OC(F)(F)F)cc2)n1 [Example 48, N-(2-Methoxybenzyl)-N′-{6-[4-(trifluoromethoxy)phenyl]pyridin-2-yl}guanidine] | < 10
27 | COc1ccccc1CNC(=N)Nc1cccc(-c2cccs2)n1 [Example 49, N-(2-Methoxybenzyl)-N′-[6-(2-thienyl)pyridin-2-yl]guanidine] | < 0.1
28 | COc1ccccc1CNC(=N)Nc1cccc(-c2ccc(F)cc2)n1 [Example 50, N-[6-(4-Fluorophenyl)pyridin-2-yl]-N′-(2-methoxybenzyl)guanidine] | < 0.3
29 | COc1ccccc1CNC(=N)Nc1cccc(-c2ccccc2)n1 [Example 51, N-(2-Methoxybenzyl)-N′-(6-phenylpyridin-2-yl)guanidine acetate] | < 0.1
30 | COc1ccccc1CNC(=N)Nc1cccc(C#N)n1 [Example 52, N-(6-Cyanopyridin-2-yl)-N′-(2-methoxybenzyl)guanidine acetate] | < 0.1
31 | COc1cccc(OC)c1CNC(=N)Nc1cccc(-c2ccccc2)n1 [Example 53, N-(2,6-Dimethoxybenzyl)-N′-(6-phenylpyridin-2-yl)guanidine acetate] | < 0.1
32 | COc1cccc(OC)c1CNC(=N)Nc1cccc(-c2ccc(F)cc2)n1 [Example 54, N-(2,6-Dimethoxybenzyl)-N′-[6-(4-fluorophenyl)pyridin-2-yl]guanidine] | < 0.1
33 | COc1cccc(OC)c1CNC(=N)Nc1cccc(C#N)n1 [Example 55, N-(6-Cyanopyridin-2-yl)-N′-(2,6-dimethoxybenzyl)guanidine acetate] | < 0.1
34 | COc1cccc(OC)c1CNC(=N)Nc1cc(-c2ccccc2)ccn1 [Example 56, N-(2,6-Dimethoxybenzyl)-N′-(4-phenylpyridin-2-yl)guanidine diacetate] | < 0.1
35 | COc1cccc(OC)c1CNC(=N)Nc1cc(-c2ccc(F)cc2)ccn1 [Example 57, N-(2,6-Dimethoxybenzyl)-N′-[4-(4-fluorophenyl)pyridin-2-yl]guanidine acetate] | < 0.1
36 | COc1ccccc1CNC(=N)Nc1cc(-c2ccccc2)ccn1 [Example 58, N-(2-Methoxybenzyl)-N′-(4-phenylpyridin-2-yl)guanidine acetate] | < 0.1
37 | COc1ccccc1CNC(=N)Nc1cc(-c2ccc(F)cc2)ccn1 [Example 59, N-[4-(4-Fluorophenyl)pyridin-2-yl]-N′-(2-methoxybenzyl)guanidine acetate] | < 0.3
38 | COc1cccc(OC)c1CNC(=N)Nc1ncccc1-c1ccccc1 [Example 60, N-(2,6-Dimethoxybenzyl)-N′-(3-phenylpyridin-2-yl)guanidine acetate] | < 0.3
39 | COc1cccc(OC)c1CNC(=N)Nc1ncccc1-c1ccc(F)cc1 [Example 61, N-(2,6-Dimethoxybenzyl)-N′-(3-(4-fluorophenyl)pyridin-2-yl)guanidine acetate] | < 0.3
40 | COc1ccccc1CNC(=N)Nc1ncccc1-c1ccccc1 [Example 62, N-(2-Methoxybenzyl)-N′-(3-phenylpyridin-2-yl)guanidine acetate] | < 0.1
41 | COc1ccccc1CNC(=N)Nc1ncccc1-c1ccc(F)cc1 [Example 63, N-[3-(4-Fluorophenyl)pyridin-2-yl]-N′-(2-methoxybenzyl)guanidine acetate] | < 10
42 | COc1cccc(OC)c1CNC(=N)Nc1cc(C#N)ccn1 [Example 64, N-(4-Cyanopyridin-2-yl)-N′-(2,6-dimethoxybenzyl)guanidine acetate] | < 0.1
43 | COc1cccc(OC)c1CNC(=N)Nc1ncccc1C#N [Example 65, N-(3-Cyanopyridin-2-yl)-N′-(2,6-dimethoxybenzyl)guanidine acetate] | < 10
44 | COc1ccccc1CNC(=N)Nc1cc(C#N)ccn1 [Example 66, N-(4-Cyanopyridin-2-yl)-N′-(2-methoxybenzyl)guanidine acetate] | < 0.1
45 | COc1ccccc1CNC(=N)Nc1ccc(Cc2ccccc2)cn1 [Example 67, N-(5-Benzylpyridin-2-yl)-N′-(2-methoxybenzyl)guanidine acetate] | < 0.1
46 | COc1cccc(OC)c1CNC(=N)Nc1ccc(Cc2ccccc2)cn1 [Example 68, N-(5-Benzylpyridin-2-yl)-N′-(2,6-dimethoxybenzyl)guanidine acetate] | < 0.1
47 | COc1ccccc1CNC(=N)Nc1cccc(Cc2ccccc2)n1 [Example 69, N-(6-Benzylpyridin-2-yl)-N′-(2-methoxybenzyl)guanidine acetate] | < 0.1
48 | COc1cccc(OC)c1CNC(=N)Nc1cccc(Cc2ccccc2)n1 [Example 70, N-(6-Benzylpyridin-2-yl)-N′-(2,6-dimethoxybenzyl)guanidine acetate] | < 0.1
49 | COc1cccc(C)c1CNC(=N)Nc1cccc(Br)n1 [Example 71, N-(6-Bromopyridin-2-yl)-N′-(2-methoxy-6-methylbenzyl)guanidine] | < 0.1
